Measured values taken from patent publication US7977317B2, “Compositions and methods for modulating blood-brain barrier transport” (Raptor Pharmaceutical Inc., priority 2001, dated 2011).

Key:
[1] = system: RBE4 cells; test: Competition of [125I]-p97 binding on rat brain endothelial cells (RBE4); conditions: competitor 10 micromolar, 2 hrs at 4° C. (FIG. 4)
Procedure: FIG. 4. Binding of p97 on rat brain endothelial cells. Binding p97 was performed with RBE4 that were pre-incubated 2 hrs in Ringer-Hepes. For the binding experiments, cells in 24-well microplates were incubated for 2 h at 4° C. in Ringer/Hepes in the presence of [^125I]-p97 (25 nM) and 10 micromolar concentrations of cold-p97, transferrin or lactoferin, respectively. At the end of the incubation, the cells were gently washed at 4° C. three times with 4 ml of cold-PBS. RBE4 cells were then lysed with Triton X-100 and the associated radioactivity of with cell lysates was determined.
RBE4 cells were grown in monolayers in 24 wells plastic tissue culture flasks at 37° C. under 5% CO2 in minimum essential medium Alpha and Ham's F10 (1:1) supplemented with 10% heat inactivated fetal bovine serum. For p97 binding experiments, RBE4 cells were pre-incubated at 37° C. for 2 hrs in Ringer/Hepes. ^125I-p97 in 200 μl of Ringer/Hepes was added to RBE4 cells for 2 hrs at 4° C. in the presence or absence of high concentration of cold-p97, human holo-transferrin or human lactoferrin. After the incubation, the cells were washed 4 times with PBS and the ^125I-p97 associated with the cells was measured.

[2] = system: BBCEC monolayers; test: Transcytosis across BBCEC monolayers (in vitro BBB model); type: cell-based, bovine
Source text: FIG. 10 assesses the ability of several agents to interfere with p97 transyctosis. FIG. 10a, transcytosis of I125-P97 was compared in the presence of cold p97 (5 micromolar), Lf (5 micromolar), and Tf (5 micromolar). […] FIG. 10c, RAP, a known poly-peptide inhibitor of the LDL-Receptor family was applied to the cells (25 micrograms/ml).
(§1) FIG. 11 examines the accumulation and transcytosis of p97. FIG. 11a, of [^125I]-p97, [^125I]-BSA and [^125I]-holo-transferrin one hour after i.v. injection. The radioactivity in brain was compared between the three compounds. (n=3); FIG. 11b, Accumulation of p97 and transferrin into the mouse brain parenchyma. In situ brain perfusion was performed with human [^125I]-p97 or [^125I]-holo-transferrin at a final concentration of 10 nM via a catheter inserted in the right common carotid artery. The volume of distribution (VD) of [^125I]-proteins were obtained in the whole brain homogenate (white bars), in brain capillaries (solid bars) and in brain parenchyma (hatched bars) after isolation of the right hemisphere and capillary depletion. Results were obtained for p97 (n=10) and for holo-transferrin (n=6); FIG. 11c, Transcytosis of p97 across BBCEC monolayers. Transcytosis experiments were performed 37° C. (open circles) and 4° C. (closed circles) with BBCEC monolayers. [^125I]-p97 (1 mg/ml) was added to the upper side of the cell-covered filter. One representative experiment is shown (n=4); FIG. 11d, Preferential transport of p97 across the BBCEC monolayers. Apical-to-basal and basal-to-apical transport of [^125I]-p97 (25 nM) was measured for 2 hrs at 37° C. At the end of the experiment, [^125I]-p97 was assessed in the lower or upper chambers of each well by TCA precipitation (n=4).
FIG. 13 illustrates the transcytosis and accumulation of p97 and transferrin in BBCEC monolayers. FIG. 13a, Transcytosis experiments were performed at 37° C. (solid bars) or 4° C. (white bars). [^125I]-p97 or bovine [^125I]-holo-transferrin (1 mg/ml) was added to the upper side of the cell-covered filter. At the end of the experiment, radiolabelled proteins were measured in the lower chamber of each well by TCA precipitation (n=4). Controls were also performed at 37° C. with denatured [^125I]-p97 or bovine [^125I]-holo-transferrin boiled for 30 min (grey bars) (n=2); FIG. 13b, Biospecific interaction analysis was performed with native or boiled p97 for the indicated times. MAb L235 (5 μg) was immobilized on a sensor chip (SM5) using standard procedures incorporating NHS, EDC and ethanolamine. Native and boiled p97 (5 to 30 min) diluted at 1 mg/ml in Ringer/Hepes was cooled and injected into the BIAcore. The surface plasmon resonance response obtained for native p97 and boiled p97 was plotted (in relative units (RU)) as a function of time; FIG. 13c, The accumulation of both proteins into BBEC cells were also measured. Briefly, after incubation at 37° C. (solid bars) or 4° C. (white bars) with either [^125I]-protein, cells were washed four times with cold PBS. Accumulation of both denatured proteins (grey bars) was also measured at 37° C. Filters were then removed, and the radioactivity associated with the cells was quantified (n=3).
FIG. 14 illustrates the stability of p97 and integrity of the BBCEC monolayers following p97 transcytosis. FIG. 14a, Transcytosis experiments were performed at 37° C. and 4° C. by adding p97 (1 mg/ml) to the upper compartment. At the end of the experiment, 50 μl from each lower chamber was used for SDS-polyacrylamide gel electrophoresis. After electrophoresis, the gels were stained with Coomassie Blue. A standard curve was also made with known amounts of recombinant p97 (0-2 μg); FIG. 14b. The gels were dried and scanned to quantify the amount of intact p97 that crossed the BBCEC monolayers at 37° C. and 4° C. (n=3); FIG. 14c, Effect of p97 on sucrose permeability of BBCE cell monolayers co-cultured with astrocytes. […]

[3] = In situ brain perfusion with capillary depletion; type: in vivo; conditions: mice, 10 min perfusion, 10 nM [125I]-protein (FIG. 11b)
Procedure: as §1, with “[^125I]-p97 (1 mg/ml) was added to the upper side of the cell-covered filter. One representative experiment is shown (n=4); FIG. 11d, Preferential transport of p97 across the BBCEC monolayers.” left out
A. Brain uptake and in situ brain perfusion. […] The serum and brain samples were collected and the levels of radioactivity were measured. […]

In the case of “transferrin: transferrin (Tf), iron-binding serum protein used as comparator and competitor”, the “Inhibition of [125I]-p97 binding to RBE4 cells” value [1] is reported as “does not”, the “Effect of heat-denaturation on passage through BBCEC monolayers” value ([2]; boiled 30 min, 37° C. (FIG. 13a)) is reported as “reduced the passage” and the “Effect on transcytosis of 125I-p97” value ([2]; competitor 5 micromolar (FIG. 10a, 10b)) is reported as “only the cold p97 successfully reduced”. For the same substance, the “Apparent VD in the brain parenchyma” value [3] was 2.4 ml/100 g.
